The source of these data is patent US8828966B2, “Method for treatment of macular degeneration by modulating P2Y12 or P2X7 receptors” (priority 2006, dated 2014).

For test [1], the system named is ARPE-19 cells. Briefly: Lysosomal pH (pHL) with LysoSensor Yellow/Blue, high through-put screen. The test is classed as cell-based, human. The note with it: for effect on pHL of cells treated with tamoxifen: tamoxifen concentration not stated, A68930 and A77636 at 1 μM. The procedure: Lysosensor Yellow/Blue co-localized with the Lysotracker Red dye in small vesicles, with a distribution consistent with lysosomal origin. Measurements of pHL were performed using a high throughput screening (HTS) protocol to maximize output and minimize variation using ARPE-19 cells in 96 well plates. […] Loading for 5 min. at 23° C. with 5 μM lysosensor, followed by 15 min. for internalization, produced stable and reproducible results.
The ratio was converted to pH by calibrating with KCl buffered to pH 4.0-6.0 in the presence of monensin and nigericin. Calibration indicated a baseline pH of 4.4 to 4.5, supporting lysosomal localization. […] NH4Cl decreased the ratios slightly at 380 nm. Nevertheless, absent the addition of the dye, none of these compounds, or any others, altered the fluorescent signal at 340 or 380 nm, showing a specificity of the measured change to pHL. […] This quantification is necessary to predict the potential effectiveness of acidifying drugs to restore lysosomal enzyme activity.
Extensive trials determined that the optimal response is obtained with 5 minute dye loading and 15 minute post-incubation. […] All reagents were from Sigma Chemical Corp. unless otherwise indicated.
In general, each condition below used 3-12 independent wells per plate, in 3-6 separate plates. As levels from individual plates varied, data was normalized to the mean pHL for control wells from each plate. Fluorescent ratios were converted to pH following calibration performed on each plate as described. Incubation with Lysosensor Yellow/Blue was kept constant and all measurements were performed 15 min after removal of dye from the bath to ensure continuity. Significance was determined with a one-way ANOVA and Tukey post test. Drugs were always tested on control cells to ensure modification of healthy RPE cells was minimal, and cells were not exposed to dye to make sure effects were specific. All background was subtracted from the fluorescence excited at 340 and 380 nm independently before calculation of the ratio.

The test system of test [2] is primary cultures of bovine RPE cells. Briefly: Lysosomal pH in primary bovine RPE cultures. Type of test: cell-based. The protocol:
Isolation of Bovine and Mouse RPE Cells: The bovine RPE-choroid and sclera were removed, incubated in 2.5% trypsin at 37° C. in 5% CO2 for 30 min, after which RPE sheets are dissected, washed and plated in 96-well plates with 10% serum medium. Mouse eyes were incubated in DMEM for 3 hrs at room temperature (RT), then in 0.1% trypsin and 0.4 mg/ml collagenase IV with 1 mM EDTA for 45 min at RT. RPE sheets were dissected out, washed, and incubated with 0.25% trypsin/0.02% EDTA in order to obtain a suspension of single cells, then grown as above.
HTS Measurement of pHL: ARPE-19 cells were grown in 96-well plates, rinsed 3× with isotonic solution (IS; prepared from NaCl 105 mM, KCl 5 mM, HEPES Acid 6 mM, Na HEPES 4 mM, NaHCO3 5 mM, mannitol 60 mM, glucose 5 mM, MgCl2 0.5 mM, CaCl2 1.3 mM) and incubated with 5 μM LysoSensor Yellow/Blue (Invitrogen Corp.) diluted with IS. Extensive trials determined that the optimal response is obtained with 5 minute dye loading and 15 minute post-incubation. Fluorescence was measured with a Fluoroskan 96-well Plate Reader (Thermo Electron Corp.). pHL was determined from the ratio of light excited at 340 nm vs 380 nm ([…] em). pHL was calibrated by exposing cells to 10 μM H^+/Na^+ ionophore monensin and 20 μM H^+/K^+ ionophore nigericin in 20 MES, 110 KCl and 20 NaCl at pH 3.0-7.0 for 15 min. All reagents were from Sigma Chemical Corp. unless otherwise indicated.

Test [3] relates to ARPE-19 cells. Briefly: Clearance (degradation) of calcein-labeled photoreceptor outer segments. The test is classed as cell-based, human. The note with it: after 24 hrs. The protocol:
Outer Segment Degradation: Bovine retinas were homogenized in 20% sucrose with 130 mM NaCl, 20 mM Tris-HCl, 10 mM glucose, 5 mM taurine and 2 mM MgC12 (pH 7.20). The homogenate was placed in ultracentrifuge tubes with 20%, 27%, 33%, 41%, 50% and 60% sucrose, respectively, and centrifuged for 70 minutes at 28,000 rpm on a SW28 rotor (4° C.). The supernatant was filtered, diluted in 0.02M Tris-HCl buffer (pH 7.2) and centrifuged at 13,000×g for 10 minutes (4° C.). The pellet was resuspended in […], 0.1 mM NaCl and 2.5% sucrose. Outer segments were loaded with 5 μM calcein-AM in PBS for 10 minutes, and spun 2× at 14,000 rpm to wash. Outer segments were then diluted 1:100 in growth medium and added to ARPE-19 cells in 96-well plates.
Isolated bovine outer segments loaded with calcein were supplied to ARPE-19 cells in 96-well plates for 2 hrs, washed 3× and maintained in control medium for an additional 3 hr (see Methods). […] Promising compounds were examined for their effects on cells treated with A2E, although the restoration of pHL is unlikely to remove A2E itself. However, other components of the outer segments are amendable to digestion by lysosomal enzymes at the appropriate pHL, and acidification could minimize the secondary effect of this accumulation.

Test [4] deals with RPE cells from ABCA4−/− mice. Briefly: Lysosomal pH in fresh RPE cells from ABCA4-/- mice, drug added to the cells. The test is classed as cell-based, mouse. The note with it: RPE cells from 11-month-old ABCA4−/− mice. From the text:
Measurement of pHL from Isolated Mouse Cells: Based on protocols that are used extensively to measure Ca2^+ from retinal ganglion cells (Zhang et al. Invest. Ophthalmol. Vis. Sci. 46:2183-2191 (2005)), cells were fixed on coverslips and mounted on Nikon Eclipse inverted microscope, visualized with a x40 oil-immersion fluorescence objective, and perfused with control solution. The field was alternatively excited at 340 nm and 380 nm, and fluorescence >515 emitted from the region of interest surrounding individual cells is measured with a CCD camera and Imagemaster software (Photon Technologies International, Inc). After baseline levels were recorded for 3-5 minutes in the absence of dye, solution was replaced with 5 μM Lysosensor Yellow/Blue dye for 5 minutes before washing for an additional 15 minutes. The ratios in the control solutions were recorded, and then acidifying drugs were added. Ratios were converted to pH with monensin/nigericin as above.
As a result, lysosomal pH increases early, and is measured in ABCA4^−/− mice at 6, 12 and 18 weeks from RPE cells within 5 hours of sacrifice. […] However, the signal/noise from measurements of isolated cells with the plate reader is not acceptable. Instead, this signal is measured using the microscope-based imaging system, previously used successfully to measure Ca2^+ from freshly isolated retinal ganglion cells (Zhang et al., supra, 2005). […]

The subject of test [5] is cAMP in the RPE. Briefly: Effect of ATP on cAMP in the RPE. The test is classed as cell-based. The protocol:
P2Y11 Receptor: The initial investigation screened agonists that act at multiple P2 receptors for their effect on pHL using the high through-put assay. BzATP, ATP, ATPγS, ADPγS and 2 MeSATP and AR-C67085 were added at 10, 30, 100 and 300 μM, respectively, and relative actions were compared with published information for the human P2Y11 receptor (von Kugelgen et al, supra, 2000; Communi et al., supra, 1997; Communi et al., Br. J. Pharmacol. 128:1199-206 (1999)). ATP was added in the presence of ecto-ATPase/eNPP inhibitors βγmATP and ARL67156 (100 μM) since they prevent degradation of ATP in these cells. Receptor involvement was confirmed with antagonists suramin, reactive blue 2 and pyridoxal-phosphate-6-azophenyl-2′,4′-disulphonic acid (PPADS; all at 0.1, 1, 10 and 100 μM). Since the finding that ATP had the ability to elevate cAMP in the RPE was novel, the effect of ATP on cAMP was measured directly using the cAMP-Screen Direct Chemiluminescent Immunoassay System kit from Applied Biosystems using an HTS luminometer to measure […]. The role of cAMP was confirmed by inhibiting pKA with 100 μM Rp-8-Br-cAMPS.

The subject of test [6] is ABCA4−/− mice. Briefly: Oral P2Y12 inhibitor in ABCA4-/- mice, lysosomal pH of RPE cells. Type of test: in vivo, mouse. The protocol:
In this example the selected P2Y12 inhibitor was clopidogrel (commercially available as Plavix), but the invention need not be so limited, and other P2Y12 inhibitors, such as AR-C66096, may be used. The clopidogrel was given orally at 50 mg/kg and the pH measured from RPE cells that were removed 4 hrs later.

Test [7] deals with ABCA4−/− mice. Briefly: Oral ticagrelor in ABCA4-/- mice, RPE autofluorescence. Type of test: in vivo, mouse. Conditions: 26 month old mice, 12 ug/ml in the water for 4 days, excited with 406 nm laser. An excerpt: Finally, as recorded in the photographic images of FIG. 12F, autofluorescence in untreated ABCA4−/− mice (upper, Con)) were compared with those treated with Brilinta (lower, Bri) in the water.

In test [8] the test system is other P2 receptors. Conditions: cited from earlier work.
The test system of test [9] is ARPE-19 cells. Briefly: FACS analysis of autofluorescence (excited at 488 nm). Type of test: cell-based, human. The note with it: photoreceptor outer segments plus 10 μM chloroquine, 7 days. From the text:
To maintain a balance between the synthesis, degradation, and subsequent recycling of cellular products there are a variety of autophagic responses, but all involve degradation of intracellular components via the lysosome. Typically, autophagy involves the formation of a membrane around a targeted region of the cell, separating the contents from the rest of the cytoplasm, and then the resultant vesicle fuses with a lysosome and the contents are subsequently degraded.

The subject of test [10] is primate model of the disease. Conditions: delivered orally; cited from earlier work.

For the molecule `CC/C(=C(\c1ccccc1)c1ccc(OCCN(C)C)cc1)c1ccccc1` [tamoxifen], the “time for elevated lysosomal pH to reach a plateau” value in test [1] was 10-15 minutes. The “effect on pHL, agent alone” value is listed as “raised pHL” in test [1] (cells without other alkalinizing agent, NH4Cl 10 mM, BAF 200 nM, CHQ 20 μM, CFTR-172 10 μM, LDL 10 μg/ml, others not given) and “increased pHL” in [2]. Besides, in [3], the “clearance of calcein-labeled outer segments, alkalinizing agent alone” value is given as “slowed clearance of outer segments”.

Turning to `NC[C@@H]1O[C@H](c2ccccc2)Cc2c1ccc(O)c2O` [A68930], in test [1], the “effect on pHL of cells treated with tamoxifen” value is “decreased lysosomal pH”. In addition, the “effect on pHL (ratio 340 to 380 nm)” value in test [4] is “decreased pHL”.

For the molecule `Nc1ncnc2c1ncn2[C@@H]1O[C@H](COP(=O)(O)OP(=O)(O)OP(=O)(O)O)[C@@H](O)[C@H]1O` [ATP], the “effect on lysosomal pH, conditions not stated” value in test [1] is listed as “acidify lysosomes”. For the same molecule, in test [5], the “effect on cAMP in the RPE” value was “elevate cAMP”.

With `CCCSc1nc(N[C@@H]2C[C@H]2c2ccc(F)c(F)c2)c2nnn([C@@H]3C[C@H](OCCO)[C@@H](O)[C@H]3O)c2n1` [ticagrelor], the “lysosomal pH of RPE cells (ratio of pH sensor) after drug in the water” value in [6] (20 month old mice, 12 ug/ml in the water for 19 days) was “reduced lysosomal pH of RPE cells”. For the same molecule, the “autofluorescence in RPE cells” value in test [7] is listed as “decreased autofluorescence”.

For the molecule `Cl.Clc1cccc(-c2nnnn2Cc2cccnc2)c1Cl` [A438079, 3-[[5-(2,3-Dichlorophenyl)-1H-tetrazol-1-yl]methyl]pyridine hydrochloride salt], in test [1] (cells stimulated with BzATP), the “effect on pHL rise by P2X7 agonist BzATP” value is “prevented this rise”. The “activity at other P2 receptors” value in [8] is listed as “devoid of activity at other P2 receptors”. In addition, the “effect on autofluorescence enhanced by POS+CHQ” value in test [9] is recorded as “reduced this enhanced autofluorescence”.

In the case of `COC(=O)[C@H](c1ccccc1Cl)N1CCc2sccc2C1` [clopidogrel], the “lysosomal pHL in RPE cells after single oral dose” value in test [6] (9-11 month old mice, 50 mg/kg orally, single dose, cells removed 4 hrs later) is given as “reduced”.

Consider `NC[C@@H]1O[C@H](C23CC4CC(CC(C4)C2)C3)Cc2c1ccc(O)c2O` [A77636], for which the “effect on pHL of cells treated with tamoxifen” value in [1] is listed as “decreased lysosomal pH”. For the same molecule, the Parkinsonian activity result in test [10] is “reduces Parkinsonian activity”. The “effect on pHL (ratio 340 to 380 nm)” value in test [4] was “decreased pHL”.
